Data as given in US20110045101A1, “FUNGICIDAL SUBSTITUTED AZOLES” (E.I. Du Pont De Nemours and Company, priority 2009, published 2011).

Experiments:
Assay type in all cases: in vivo
[1] = system: Alternaria solani; assay: Test D: tomato early blight, sprayed the day before inoculation, visual disease rating; conditions: 200 ppm, 100 = 100% disease control; for pest or weed control at 200 ppm: Alternaria solani, 168 h
In short: (§1)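 Ratings reflect a 200 ppm spray (≈500 g/ha) unless marked as 40 ppm. Plants were sprayed to run-off. The spray suspension was acetone/purified water 50/50 containing 250 ppm Trem 014, after first dissolving compound in acetone at 3% of final volume.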

[2] = system: Erysiphe graminis f. sp. tritici; assay: Test J: wheat powdery mildew on wheat seedlings, sprayed the day before inoculation, visual disease rating; conditions: 200 ppm, 100 = 100% disease control; for pest or weed control at 200 ppm: Blumeria graminis, 168 h
In short: as §1

[3] = system: Puccinia recondita f. sp. tritici; assay: Test I: wheat leaf rust on wheat seedlings, sprayed the day before inoculation, visual disease rating; conditions: 200 ppm, 100 = 100% disease control; for pest or weed control at 200 ppm: Puccinia recondita, 168 h
In short: as §1

[4] = system: Septoria nodorum; assay: Test F: wheat glume blotch on wheat seedlings, sprayed the day before inoculation, visual disease rating; conditions: 200 ppm, 100 = 100% disease control; for pest or weed control at 200 ppm: Parastagonospora nodorum, 264 h
In short: as §1

[5] = system: Septoria tritici; assay: Test G: wheat leaf blotch on wheat seedlings, sprayed the day before inoculation, visual disease rating; conditions: 200 ppm, 100 = 100% disease control; for pest or weed control at 200 ppm: Zymoseptoria tritici, 504 h
In short: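 Wheat seedlings were sprayed to run-off with test suspension (acetone/water plus surfactant), generally 200 ppm (≈500 g/ha), or 40 ppm where marked. Septoria tritici spores were inoculated the next day; plants were held 48 h at 24°C in saturated atmosphere, then 19 days at 20°C before visual disease rating.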

[6] = system: Botrytis cinerea; assay: Test C: tomato Botrytis on tomato seedlings, sprayed the day before inoculation, visual disease rating; conditions: 200 ppm, 100 = 100% disease control; for pest or weed control at 200 ppm: Botrytis cinerea, 120 h
In short: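 Disease scored by eye on tomato seedlings inoculated with Botrytis cinerea a day after treatment. Treatment was a run-off spray at 200 ppm (equivalent to 500 g/ha), or 40 ppm where marked, in acetone/water carrying 250 ppm Trem 014.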

[7] = 0 = no control relative to controls

Structure (SMILES) | Test D disease control rating ([1]; 0 = no control) [%] | Test J disease control rating ([2]; 0 = no control) [%] | Test I disease control rating ([3]; 0 = no control) [%] | Test F disease control rating ([4]; 0 = no control) [%] | Test G disease control rating ([5]; 0 = no control) [%] | Test C disease control rating ([6]; 0 = no control) [%] | Test D disease control rating [1, 7] [%] | Test J disease control rating [2, 7] [%] | Test I disease control rating [3, 7] [%] | Test F disease control rating [4, 7] [%] | Test G disease control rating [5, 7] [%] | Test C disease control rating [6, 7] [%] | other results
Cc1nc(Cl)c(-c2c(F)cccc2F)n1-c1ccc(F)c(F)c1 [compound 174] | 99 | 100 | 100 | 82 | 98 | 98 |  |  |  |  |  |  | 
Cc1nn(C)c(-c2c(F)cccc2Cl)c1-c1cccc(F)c1 [compound 62] |  |  |  |  |  |  | 0 | 81 | 0 | 0 | 5 | 94 | 
Cc1nc(Cl)c(-c2c(F)cccc2F)n1-c1ccc(Cl)c(F)c1 [compound 247] | 100 | 100 | 100 | 100 | 97 | 100 |  |  |  |  |  |  | 
C#Cc1nc(Cl)c(-c2c(F)cccc2F)n1-c1cccc(F)c1 [Compound 47, 4-chloro-5-(2,6-difluorophenyl)-2-ethynyl-1-(3-fluorophenyl)-1H-imidazole] |  |  |  |  |  |  |  |  |  |  |  |  | pest or weed control at 200 ppm [1, 7]: 42%; pest or weed control at 200 ppm [2, 7]: 93%; pest or weed control at 200 ppm [3, 7]: 54%; pest or weed control at 200 ppm [4, 7]: 0%; pest or weed control at 200 ppm [5, 7]: 77%; pest or weed control at 200 ppm [6, 7]: 94%
COc1cc(F)c(-c2c(Cl)nc(C)n2-c2cccc(F)c2)c(F)c1 [Compound 280, 4-chloro-5-(2,6-difluoro-4-methoxyphenyl)-1-(3-fluorophenyl)-2-methyl-1H-imidazole] |  |  |  |  |  |  |  |  |  |  |  |  | pest or weed control at 200 ppm ([1]; 0 = no control): 100%; pest or weed control at 200 ppm ([2]; 0 = no control): 100%; pest or weed control at 200 ppm ([3]; 0 = no control): 100%; pest or weed control at 200 ppm ([4]; 0 = no control): 100%; pest or weed control at 200 ppm ([5]; 0 = no control): 95%; pest or weed control at 200 ppm ([6]; 0 = no control): 100%
Fc1ccc(F)c(-c2c(Cl)nc(Br)n2-c2ccc(Cl)c(Cl)c2)c1F [compound 440] |  |  |  |  |  |  | 100 | 99 | 98 | 98 | 95 | 99 | 
COc1cc(F)c(-c2c(Cl)nc(Br)n2-c2cccc(F)c2)c(F)c1 [Compound 256, 2-bromo-4-chloro-5-(2,6-difluoro-4-methoxyphenyl)-1-(3-fluorophenyl)-1H-imidazole] |  |  |  |  |  |  |  |  |  |  |  |  | pest or weed control at 200 ppm ([1]; 0 = no control): 100%; pest or weed control at 200 ppm ([2]; 0 = no control): 99%; pest or weed control at 200 ppm ([3]; 0 = no control): 100%; pest or weed control at 200 ppm ([4]; 0 = no control): 100%; pest or weed control at 200 ppm ([5]; 0 = no control): 97%; pest or weed control at 200 ppm ([6]; 0 = no control): 100%
COc1cc(F)c(-c2c(Cl)nc(Cl)n2-c2cccc(F)c2)c(F)c1 [compound 257] | 100 | 100 | 100 | 99 | 95 | 100 |  |  |  |  |  |  | 
Cc1ccc(-n2c(C)nc(Cl)c2-c2ccc(F)cc2Cl)cc1 [compound 188] | 100 | 99 | 100 | 0 | 97 | 98 |  |  |  |  |  |  | 
Cc1nc(Cl)c(-c2c(F)cccc2F)n1-c1ccccc1F [compound 64] |  |  |  |  |  |  | 100 | 96 | 100 | 95 | 95 | 99 | 
Fc1ccccc1-n1c(Br)nc(Cl)c1-c1c(F)cccc1F [compound 58] |  |  |  |  |  |  | 100 | 100 | 99 | 51 | 79 | 98 | 
Cc1nc(Cl)n(-c2ccc(Cl)c(F)c2)c1-c1c(Cl)cncc1Cl [compound 262] | 99 | 100 | 100 | 69 | 96 | 99 |  |  |  |  |  |  | 
